These results are taken from ChEMBL document CHEMBL1127270, “Enantioselective synthesis of PD144723: a potent stereospecific anticonvulsant” (Bioorg Med Chem Lett, 1994).

Assay [1] is filed under the species Rattus norvegicus. In words: In vitro percent inhibition of [3H]gabapentin binding at log molar concentration of -8.
Assay [2] is filed under the species Rattus norvegicus. The experiment in a line: In vitro percent inhibition of [3H]gabapentin binding at log molar concentration of -5.5.
For assay [3], the system named is Mus musculus. In words: Percent of mice protected in blocking maximal electroshock seizures test at a dose of 500 mg/kg, iv,. The format is functional.
For assay [4], the system named is Mus musculus. In words: Percent of mice protected in blocking maximal electroshock seizures test at a dose of 100 mg/kg, iv,. It counts as functional.
The species named for assay [5] is Rattus norvegicus. The experiment in a line: In vitro percent inhibition of [3H]gabapentin binding at log molar concentration of -6.5.
For assay [6], the species on record is Rattus norvegicus. The experiment in a line: In vitro percent inhibition of [3H]gabapentin binding at log molar concentration of -4.5.
The species entered for assay [7] is Mus musculus. The experiment in a line: Effective dose for anticonvulsant activity (blocking maximal electroshock seizures) in male CF-1 strain mice was measured. It counts as functional.
Assay [8] is filed under the species Rattus norvegicus. The experiment in a line: In vitro percent inhibition of [3H]gabapentin binding at log molar concentration of -7.5.
Assay [9] can be described thus: In vitro inhibition of [3H]-gabapentin binding to partially purified rat neocortex synaptic plasma membranes. The format is cell membranes, Membrane.
The species named for assay [10] is Rattus norvegicus. In words: In vitro percent inhibition of [3H]gabapentin binding at log molar concentration of -5.
The species named for assay [11] is Rattus norvegicus. The experiment in a line: In vitro percent inhibition of [3H]gabapentin binding at log molar concentration of -7.
The species entered for assay [12] is Rattus norvegicus. In words: In vitro percent inhibition of [3H]gabapentin binding at log molar concentration of -6.
For assay [13], the species on record is Rattus norvegicus. The experiment in a line: In vitro percent inhibition of [3H]gabapentin binding at log molar concentration of -4.
Assay [14] is filed under the species Rattus norvegicus. In words: In vitro percent inhibition of [3H]gabapentin binding at log molar concentration of -8.5.
Assay [15] relates to Mus musculus. In words: Percent of mice protected in blocking maximal electroshock seizures test at a dose of 75 mg/kg, iv,. It counts as functional.
The test system of assay [16] is Mus musculus. The experiment in a line: Percent of mice protected in blocking maximal electroshock seizures test at a dose of 750 mg/kg, iv,. It counts as functional.
Assay [17] relates to Mus musculus. The experiment in a line: Percent of mice protected in blocking maximal electroshock seizures test at a dose of 50 mg/kg, iv,. It counts as functional.
In assay [18] the test system is Mus musculus. In words: Percent of mice protected in blocking maximal electroshock seizures test at a dose of 450 mg/kg, iv,. It counts as functional.
In assay [19] the test system is Mus musculus. The experiment in a line: Percent of mice protected in blocking maximal electroshock seizures test at a dose of 150 mg/kg, iv,. The format is functional.

For `CC(C)C[C@@H](CN)CC(=O)O`, the inhibition in assay [1] came out at 0%; in assay [2], 80%; in assay [5] it was 38%; in assay [6], 90%; in assay [8], 10%; in assay [10], 80%. The inhibition in [11] worked out at 8%; in [12], 60%. For the same compound, the Protection in [3] was around 1%; in assay [4], around 94%. The same compound came in with an ED50 in [7] above 300 mg/kg. Further, in assay [9], the IC50 came out at 620 nM.

Consider `CC(C)CC(CN)CC(=O)O` (racemic), for which the inhibition was determined as 12% in assay [1]; 92% in assay [2]; 100% in [13]; 74% in [5]; 98% in assay [6]; 30% in assay [8]. For the same compound, the inhibition was found to be 10% in assay [14], 94% in assay [10], 50% in assay [11] and 90% in assay [12]. In [9], the 50% inhibitory concentration (IC50) is 83 nM.

As to `NCC1(CC(=O)O)CCCCC1` [GABAPENTIN], the Protected in [15] is reported as around 70%; in assay [16], around 99%; in assay [17], around 1%; in assay [18], around 74%; in assay [19], around 75%. The same compound yielded an ED50 in [7] of 87 mg/kg. The compound also gave an IC50 in [9] of 80 nM.

With `CC(C)C[C@H](CN)CC(=O)O` [PREGABALIN], the inhibition in assay [1] turned out to be 25%; in assay [2], 94%; in [5], 85%; in assay [6] it was 100%; in [8], 50%; in [10], 98%. Further, the figures for the inhibition in assay [11] and in assay [12] were 75% and 90%, respectively. The ED50 in assay [7] amounted to 20 mg/kg. In addition, the IC50 in [9] was 37 nM.
